Legend:
[1] = target: T1, human TRPV3 (Homo sapiens, UniProt Q8NET8); assay: In vitro antagonism of recombinant human TRPV3 activation (FLIPR Tetra calcium assay, 2-APB as agonist); assay type: cell-based; conditions: HEK293 cells stably expressing human TRPV3; 2-APB 80 μM; range class; read-out: IC50 (reported range)
T1 construct: expressed in transfected cells
T1 sequence (Q8NET8 1-790): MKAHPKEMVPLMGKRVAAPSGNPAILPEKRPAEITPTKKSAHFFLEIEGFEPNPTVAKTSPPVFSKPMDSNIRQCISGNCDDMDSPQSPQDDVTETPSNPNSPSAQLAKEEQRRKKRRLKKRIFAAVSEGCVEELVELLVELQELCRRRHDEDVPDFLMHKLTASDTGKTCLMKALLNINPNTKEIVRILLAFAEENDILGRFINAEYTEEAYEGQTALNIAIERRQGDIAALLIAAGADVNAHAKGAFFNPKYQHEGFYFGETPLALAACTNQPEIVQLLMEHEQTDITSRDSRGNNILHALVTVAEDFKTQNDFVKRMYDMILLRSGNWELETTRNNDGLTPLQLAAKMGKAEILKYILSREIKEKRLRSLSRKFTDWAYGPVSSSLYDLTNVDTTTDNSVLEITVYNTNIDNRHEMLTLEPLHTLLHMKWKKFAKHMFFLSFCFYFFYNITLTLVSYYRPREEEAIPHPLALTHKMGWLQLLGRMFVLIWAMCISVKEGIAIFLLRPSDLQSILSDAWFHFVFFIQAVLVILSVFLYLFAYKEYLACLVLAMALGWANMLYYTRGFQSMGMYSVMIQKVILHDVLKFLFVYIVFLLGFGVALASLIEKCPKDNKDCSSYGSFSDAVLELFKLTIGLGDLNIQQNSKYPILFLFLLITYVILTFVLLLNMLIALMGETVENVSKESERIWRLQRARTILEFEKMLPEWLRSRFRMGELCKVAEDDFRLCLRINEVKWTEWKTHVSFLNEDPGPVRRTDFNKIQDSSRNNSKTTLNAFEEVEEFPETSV
Experimental: Test compounds were evaluated for ability to antagonize the activation of recombinant human TRPV3 using FLIPR® Tetra cellular screening. Specifically, on the day prior to the experiment recombinant HEK293 cells that stably express human TRPV3 were removed from tissue culture flasks and plated in growth medium at 20,000 cells/well into Poly-d-lysine coated black/clear 384-well Plate (Corning, 3845) using a Multidrop® dispenser (ThermoScientific, Waltham, Mass.). Prior to the start of the assay, the medium was removed by aspiration, and cells were loaded with 30 μL no-wash FLIPR® Calcium-4 dye (λEX=470-495 nm, λEM=515-575 nm; Molecular Devices, Sunnyvale, Calif.). The cells were then incubated for 90-120 minutes in the dark prior to addition of the test compound.
A double-addition protocol was used. The test compound (i.e., the TRPV3 antagonist) was added at the 10 second time point, followed by the addition of a TRPV3 agonist three minutes later. Each test compound evaluated was first dissolved in DMSO to prepare a 10 mM stock solution. A solution (5×) of the test compound was then prepared in DPBS (Dulbecco's Phosphate Buffered Saline) and 10 μL of that solution was added to the cells at a delivery rate of 40 μL/sec. The TRPV3 agonist used to activate human TRPV3 expressed by the […] was 2-aminoethoxy-diphenyl borate (2-APB; Tocris Cookson, Ellisville, Mo.) at 80 μM. Final assay volume was 50 μL. Total length of an experimental run was 10 minutes.
Changes in fluorescence were measured over time using the FLIPR® instrument. The intensity of the fluorescence was captured and digitally transferred to an interfaced computer. The maximum response minus minimum response was calculated and expressed as the percentage of the maximum 2-APB response in the absence of antagonist. The concentration of 2-APB corresponds to its EC80.
Table 1 reports the IC50 values measured for the test compounds as human TRPV3 antagonists. […] Actual measured values are shown parenthetically after the reported range. In most cases, the values reported are average values from at least two runs (i.e., n≧2).

[2] = In vitro human microsomal stability assay; assay type: in vitro ADME; conditions: human, 0.5 h, 0.5 μM, pH 7.4
Experimental: (§1) Test compounds were evaluated for metabolic stability in an in vitro rat microsomal stability assay using rat (Sprague-Dawley, from BD Biosciences) liver microsomes and/or an in vitro human microsomal stability assay using human (Xenotech) liver microsomes. […] Incubations were carried out at 37° C. with a final incubation volume of 135 μL. […] A 1.5 μL aliquot of reduced nicotine adenine disphosphonucleotide (NADPH) (Chem-Impex Int'L Inc., Lot 12532024) was also added to the time-zero plates.

[3] = In vitro rat microsomal stability assay; assay type: in vitro ADME, rat (Sprague-Dawley); conditions: Sprague-Dawley, rat, 0.5 h, 0.5 μM, pH 7.4
Experimental: as §1

IC50 [1] [µM] | HUMAN MICROSOMAL STABILITY (% REMAINING AFTER 30 MINUTES) [2] [%] | RAT MICROSOMAL STABILITY (% REMAINING AFTER 30 MINUTES) [3] [%] | Compound
1.1 to 5 | – | – | OC(c1ncccn1)C1(c2ccc(OC(F)(F)F)cc2)CCC1 (stereo not shown) [Example 31, pyrimidin-2-yl{1-[4-(trifluoromethoxy)phenyl]cyclobutyl}methanol]
5.1 to 20 | – | – | OC(c1ncccn1)C1(c2cccc(F)c2)CCC1 (stereo not shown) [Example 33, [1-(3-fluorophenyl)cyclobutyl](pyrimidin-2-yl)methanol]
5.1 to 20 | – | – | OC(c1ncccn1)C1(c2ccc(F)c(F)c2)CCC1 (stereo not shown) [Example 35, [1-(3,4-difluorophenyl)cyclobutyl](pyrimidin-2-yl)methanol]
5.1 to 20 | – | – | OC(c1ncccn1)C1(c2ccccc2OC(F)(F)F)CCC1 (stereo not shown) [Example 36, pyrimidin-2-yl{1-[2-(trifluoromethoxy)phenyl]cyclobutyl}methanol]
5.1 to 20 | – | – | CC(c1cccc(Cl)c1)C1(C(O)c2ccccn2)CCC1 (stereo not shown) [Example 44, {1-[1-(3-chlorophenyl)ethyl]cyclobutyl}(pyridin-2-yl)methanol]
1.1 to 5 | – | – | CC(c1cccc(F)c1)C1(C(O)c2ccccn2)CCC1 (stereo not shown) [Example 47, {1-[1-(3-fluorophenyl)ethyl]cyclobutyl}(pyridin-2-yl)methanol]
5.1 to 20 | – | – | CC(c1ccccc1F)C1(C(O)c2ccccn2)CCC1 (stereo not shown) [Example 48, {1-[1-(2-fluorophenyl)ethyl]cyclobutyl}(pyridin-2-yl)methanol]
5.1 to 20 | – | – | CC(c1ccccc1)C1(C(O)c2ccccn2)CCC1 (stereo not shown) [Example 51, [1-(1-phenylethyl)cyclobutyl](pyridin-2-yl)methanol]
1.1 to 5 | – | – | CC(c1ccc(C(F)(F)F)cc1)C1(C(O)c2ccccn2)CCC1 (stereo not shown) [Example 53, pyridin-2-yl(1-{1-[4-(trifluoromethyl)phenyl]ethyl}cyclobutyl)methanol]
5.1 to 20 | – | – | OC(c1ccccn1)C1(c2ccccc2)CCOCC1 (stereo not shown) [Example 60, (4-phenyltetrahydro-2H-pyran-4-yl)(pyridin-2-yl)methanol]
5.1 to 20 | – | – | OC(c1ccccn1)C1(c2cccc(F)c2)CCOCC1 (stereo not shown) [Example 61, [4-(3-fluorophenyl)tetrahydro-2H-pyran-4-yl](pyridin-2-yl)methanol]
5.1 to 20 | – | – | OC(c1ccccn1)C1(c2ccc(F)cc2)CCOCC1 (stereo not shown) [Example 62, [4-(4-fluorophenyl)tetrahydro-2H-pyran-4-yl](pyridin-2-yl)methanol]
5.1 to 20 | – | – | OC(c1ccccn1)C1(c2ccc(F)c(F)c2)CCOCC1 (stereo not shown) [Example 63, [4-(3,4-difluorophenyl)tetrahydro-2H-pyran-4-yl](pyridin-2-yl)methanol]
1.1 to 5 | – | – | OC(c1ccccn1)C1(c2ccc(Cl)cc2)CCOCC1 (stereo not shown) [Example 64, [4-(4-chlorophenyl)tetrahydro-2H-pyran-4-yl](pyridin-2-yl)methanol]
1.1 to 5 | – | – | OC(c1ccccn1)C1(c2ccc(C(F)(F)F)cc2)CCOCC1 (stereo not shown) [Example 65, pyridin-2-yl{4-[4-(trifluoromethyl)phenyl]tetrahydro-2H-pyran-4-yl}-methanol]
1.1 to 5 | – | – | OC(CC1(c2ccccc2)CCC1)c1ccccn1 (stereo not shown) [Example 68, 2-(1-phenylcyclobutyl)-1-(pyridin-2-yl)ethanol]

IC50 [1] [µM] | HUMAN MICROSOMAL STABILITY (% REMAINING AFTER 30 MINUTES) [2] [%] | RAT MICROSOMAL STABILITY (% REMAINING AFTER 30 MINUTES) [3] [%] | Compound
1.1 to 5 | – | – | OC(CC1(c2ccc(Cl)cc2)CCC1)c1ccccn1 (stereo not shown) [Example 69, 2-[1-(4-chlorophenyl)cyclobutyl]-1-(pyridin-2-yl)ethanol]
5.1 to 20 | – | – | OC(CC1(c2ccc(F)cc2)CCC1)c1ccccn1 (stereo not shown) [Example 70, 2-[1-(4-fluorophenyl)cyclobutyl]-1-(pyridin-2-yl)ethanol]
1.1 to 5 | – | – | OC(CC1(c2cccc(F)c2)CCC1)c1ccccn1 (stereo not shown) [Example 71, 2-[1-(3-fluorophenyl)cyclobutyl]-1-(pyridin-2-yl)ethanol]
1.1 to 5 | – | – | OC(CC1(c2cccc(Cl)c2)CCC1)c1ccccn1 (stereo not shown) [Example 72, 2-[1-(3-chlorophenyl)cyclobutyl]-1-(pyridin-2-yl)ethanol]
1.1 to 5 | – | – | OC(CC1(c2ccc(Cl)c(Cl)c2)CCC1)c1ccccn1 (stereo not shown) [Example 73, 2-[1-(3,4-dichlorophenyl)cyclobutyl]-1-(pyridin-2-yl)ethanol]
1.1 to 5 | – | – | OC(c1ccccn1)C1(c2ccc(C(F)(F)F)cc2)CCOC1 (stereo not shown) [Example 78, pyridin-2-yl{3-[4-(trifluoromethyl)phenyl]tetrahydrofuran-3-yl}methanol]
1.1 to 5 | – | – | OC(c1ccccn1)C1(c2cccc(OC(F)(F)F)c2)CCOC1 (stereo not shown) [Example 80, pyridin-2-yl{3-[3-(trifluoromethoxy)phenyl]tetrahydrofuran-3-yl}methanol]
1.1 to 5 | – | – | OC(c1ccccn1)C1(c2cccc(Cl)c2)COC1 (stereo not shown) [Example 86, [3-(3-chlorophenyl)oxetan-3-yl](pyridin-2-yl)methanol]
– | 78 | 69 | O=C1CC(c2cc(C(F)(F)F)ccn2)(C(O)c2ccccn2)C1 (stereo not shown) [Example 293, 3-[hydroxy(pyridin-2-yl)methyl]-3-[4-(trifluoromethyl)pyridin-2-yl]cyclobutanone]
– | >85 | >85 | OC1CC(c2cc(C(F)(F)F)ccn2)([C@H](O)c2ccccn2)C1 (stereo partly drawn) [Example 294, 3-[(S)-hydroxy(pyridin-2-yl)methyl]-3-[4-(trifluoromethyl)pyridin-2-yl]cyclobutanol]
– | 70 | 8.2 | O=C1CC(c2cncc(C(F)(F)F)c2)(C(O)c2ccccn2)C1 (stereo not shown) [Example 295, 3-[hydroxy(pyridin-2-yl)methyl]-3-[5-(trifluoromethyl)pyridin-3-yl]cyclobutanone]
– | 67 | 12 | O=C1CC(c2cncc(C(F)(F)F)c2)([C@H](O)c2ccccn2)C1 [Example 296, 3-[(S)-hydroxy(pyridin-2-yl)methyl]-3-[5-(trifluoromethyl)pyridin-3-yl]cyclobutanone]
– | >85 | 2.0 | OC(c1ccccn1)C1(c2ccnc(C(F)(F)F)c2)CC2(C1)OCCO2 (stereo not shown) [Example 297, pyridin-2-yl{2-[2-(trifluoromethyl)pyridin-4-yl]-5,8-dioxaspiro[3.4]oct-2-yl}methanol]
– | 80 | 59 | O=C1CC(c2ccnc(C(F)(F)F)c2)(C(O)c2ccccn2)C1 (stereo not shown) [Example 298, 3-[hydroxy(pyridin-2-yl)methyl]-3-[2-(trifluoromethyl)pyridin-4-yl]cyclobutanone]
– | >85 | >85 | O=C1CC(c2ccnc(C(F)(F)F)c2)([C@H](O)c2ccccn2)C1 [Example 299, 3-[(S)-hydroxy(pyridin-2-yl)methyl]-3-[2-(trifluoromethyl)pyridin-4-yl]cyclobutanone]
– | >85 | >85 | CC1(O)CC(c2ccc(OC(F)(F)F)cc2)(C(O)c2ncccn2)C1 [Example 310, (trans)-3-((S)-hydroxy(pyrimidin-2-yl)methyl)-1-methyl-3-(4-(trifluoromethoxy)phenyl)cyclobutanol]

Reference: US8772500B2, “TRPV3 modulators” (AbbVie Inc., priority 2011, dated 2014)
